Assay results as given in ChEMBL document CHEMBL2439976, “Discovery of NMS-E973 as novel, selective and potent inhibitor of heat shock protein 90 (Hsp90)” (Bioorg Med Chem, 2013).

What was measured:
[1] = in vivo; conditions: Balb nu/nu, mouse, iv, 10 mg/kg
[2] = in vivo; conditions: Balb nu/nu, mouse, iv, 10 mg/kg; remark: listed apart in the source
[3] = in vivo; conditions: Balb nu/nu, mouse, plasma, iv, 10 mg/kg
[4] = in vivo; conditions: Balb nu/nu, mouse, iv, 10 mg/kg; remark: listed apart in the source

With `CN(C)c1ccc(Oc2cc(O)cc(O)c2-c2cc(C(=O)NC3CCN(C4CCC5(CC4)OCCO5)CC3)no2)cc1` as the compound, how does the half-life [1] read?
The half-life was 5.46 h.

What about the Vd [2] of the same compound?
Its Vd is 4.94 L/kg.

What about the AUC(0-inf) [3] of the same compound?
The AUC(0-inf) was 7.6 µM·h.

And the clearance [4]?
Its clearance is 29.4 mL/min/kg.

Which results are given for `CN1CCC(NC(=O)c2cc(-c3c(O)cc(O)cc3Oc3ccc(N(C)C)cc3)on2)CC1`?
half-life [1]: 5.55 h; Vd [2]: 19.7 L/kg; AUC(0-inf) [3]: 5.92 µM·h; clearance [4]: 62.3 mL/min/kg

With `CC(C)Nc1ccc(Oc2cc(O)cc(O)c2-c2cc(C(=O)NC3CCN(C)CC3)no2)cc1` as the compound, how does the half-life [1] read?
Its half-life is 5.44 h.

And the Vd [2]?
The Vd was 18.4 L/kg.

And the AUC(0-inf) [3]?
The AUC(0-inf) was 4.8 µM·h.

What about the clearance [4] of the same compound?
The clearance was 64.8 mL/min/kg.
